Test results from ChEMBL document CHEMBL1124903 (J Med Chem, 1990).

Assay: Half life (T 1/2) estimated in the absence of light, in 50 mM Tris-HCl 1 mM EDTA (pH 7.4) buffer.
Type: ADME
Conditions: 50 mM Tris-HCl 1 mM EDTA buffer

Structure (SMILES) | half-life [h]
CC(c1ccc(Cl)cc1)N1CCC2(CC1)C(=O)NCN2c1ccc([N+]#N)cc1 (centres undefined) | 5
CN(c1ccc(N=[N+]=[N-])cc1)C1CCC2(O)C3Cc4ccc(O)c5c4C2(CCN3CC2CC2)C1O5 (centres undefined) | > 24
CC(c1ccc(Cl)cc1)N1CCC2(CC1)C(=O)NCN2c1ccc(N=[N+]=[N-])cc1 (centres undefined) | > 24
CN(c1ccc([N+]#N)cc1)C1CCC2(O)C3Cc4ccc(O)c5c4C2(CCN3CC2CC2)C1O5 (centres undefined) [NALTREXONEDIAZONIUM] | 5
